From EP1246814B1, “COMPOUNDS AND METHODS FOR MODULATION OF ESTROGEN RECEPTORS” (SIGNAL PHARMACEUTICALS, INC., priority 1999, dated 2001) come the findings set out here.

The term IC50 denotes the midpoint of a concentration-inhibition curve. By Ki is commonly meant the dissociation constant of the complex between target and ligand, obtained from inhibition or displacement.

In one data set the test system is U2OS IL-6 ER-Minus. Nature of the data set: IL-6 production in ER-minus U2OS osteosarcoma cells. Type of data set: cell-based. To be noted: Homo sapiens.
The target of the next data set is T1, human full-length ER-β (Homo sapiens, UniProt Q92731).
T1 construct: expression vectors for human full-length ER-α or ER-β; expressed in transfected cells
The experiment in a line: IL-6 production in U2OS osteosarcoma cells stably transfected with ER-β. The data set is classed as cell-based. To be noted: for ER subtype specificity (ER-β versus ER-α): comparison of the U2OS IL-6 IC50 values of Table 4. On the procedure:
(§1) Human U2OS osteosarcoma cells (ATCC) were stably transfected with expression vectors for human full-length ER-α or ER-β, respectively, using standard molecular biology techniques. Stable subclones were generated that expressed high levels of ER-α or ER-β mRNA. The expression of ER-α and ER-β was confirmed using RNase protection analysis.
(§2) Cells were plated into 96-well plates at a density of 8000 cells per well in phenol red-free media with charcoal-stripped fetal calf serum. Twenty-four hours later, cells were either treated with vehicle (0.2% DMSO) or test compound at the concentrations indicated (in 0.2% DMSO). Thirty minutes later cells were stimulated with 10 ng/ml IL-1β and 10 ng/ml TNF-α. Twenty-four hours later the media supernatant was analyzed for cytokine production (IL-6) using commercially available ELISA kits following the manufacturer's instructions. Cytokine production in the presence of vehicle (0.2% DMSO) was set to 100%.

Another data set has as its system IL-6. Nature of the data set: Human bone cell co-culture system, IL-6 production. Type of data set: cell-based. To be noted: for IC50: human bone co-culture system of Example 12. As for the experimental part: (§3) The generation of osteoblastic cells from normal adult femoral travecular bone from patients without evidence of metabolic bone disease was carried out as previously described (Kung Sutherland et al., Osteoporosis International 5:335-343, 1995; Wong et al., J Bone Miner 5:803-813, 1990). Bone fragments were cleaned of adherent tissue and blood and cultured for 4 weeks in medium containing Ham's F12 supplemented with 28 mM HEPES, pH 7.4, 10% FCS, 1.1 mM CaCl2, 2 mM glutamine, and 1% antibiotic-antimycotic agent. Upon confluency, the cells were harvested and immortalized using a retroviral vector (pLXSN) containing the neomycin resistance gene and the human papillomaviral (HPV18) E6 and E7 concogenes (International Journal of Oncology 6:167-174, 1995). The immortalized osteoblastic cells were selected in medium containing G418 (600 µg/ml).
(§4) The human U937 moncytic cell line (cloned from the commercially available cells by serial dilution) was maintained in RPMI 1640 medium containing 10% FCS and 1% antibiotic-antimycotic agent.
The co-culture system was established as follows. Human osteoblastic cells were plated in 96-well dishes at a density of 5 x 10^3 cells/well. U937 cells in RPMI medium (5 x 10^4 cells/well) were layered over the osteoblasts. The formation of osteoclast-like cells was induced with 100 nM PMA. To determine the effects of compounds or the neutralizing antibodies to IL-6 (Sigma) and GM-CSF (Pharmingen) on the formation of osteoclast-like cells, the compounds or the antibodies were added 30 minutes prior to the addition of PMA. The cultures were stopped after 96 hrs and processed for histochemical or immunohistochemical analyses.

For another data set, the target named is T2, human recombinant ER-α (Homo sapiens, UniProt P03372).
T2 sequence (P03372 1-595): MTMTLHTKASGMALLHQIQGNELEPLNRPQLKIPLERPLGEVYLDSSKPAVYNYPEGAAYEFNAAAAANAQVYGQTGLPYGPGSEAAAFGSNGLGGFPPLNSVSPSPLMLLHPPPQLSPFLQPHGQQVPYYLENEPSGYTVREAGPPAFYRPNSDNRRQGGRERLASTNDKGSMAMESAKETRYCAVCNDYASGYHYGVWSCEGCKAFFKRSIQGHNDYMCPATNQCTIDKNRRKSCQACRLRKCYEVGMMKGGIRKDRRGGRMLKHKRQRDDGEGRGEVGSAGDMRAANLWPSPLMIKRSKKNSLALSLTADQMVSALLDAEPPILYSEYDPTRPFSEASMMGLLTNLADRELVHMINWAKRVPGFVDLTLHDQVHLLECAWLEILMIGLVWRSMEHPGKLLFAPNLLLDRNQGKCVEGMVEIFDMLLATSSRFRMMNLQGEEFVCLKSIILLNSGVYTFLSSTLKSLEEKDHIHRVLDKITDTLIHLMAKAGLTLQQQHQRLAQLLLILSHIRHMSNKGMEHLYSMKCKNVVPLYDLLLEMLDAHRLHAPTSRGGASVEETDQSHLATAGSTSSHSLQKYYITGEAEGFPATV
Nature of the data set: Solid phase ER binding assay (3H-estradiol competition), ER-α.

The target in the next data set is T3, human full-length ER-α (Homo sapiens, UniProt P03372).
T3 construct: expression vectors for human full-length ER-α or ER-β; expressed in transfected cells
T3 sequence (P03372 1-595): T2 sequence (P03372 1-595)
Nature of the data set: IL-6 production in U2OS osteosarcoma cells stably transfected with ER-α. The data set is classed as cell-based. On the procedure:
as §1, §2

In a further data set the test system is GM-CSF. The experiment in a line: Human bone cell co-culture system, GM-CSF production. Type of data set: cell-based. As for the experimental part: as §3, §4
The co-culture system was established as follows. Human osteoblastic cells were plated in 96-well dishes at a density of 5 x 10^3 cells/well. U937 cells in RPMI medium (5 x 10^4 cells/well) were layered over the osteoblasts. The formation of osteoclast-like cells was induced with 100 nM PMA. […]

Data set [1] is described as follows: 3-day immature rat uterine bioassay. To be noted: s.c. administration.
For another data set, the target named is human recombinant ER-β (Homo sapiens, UniProt Q92731). The experiment in a line: Solid phase ER binding assay (3H-estradiol competition), ER-β. To be noted: ER binding assay of Example 18.
Data set [2] is described as follows: 28-day uterine bioassay in ovariectomized rats. Type of data set: in vivo.
Setting [3] is: ER binding assay of Example 18, read-out: ER Binding Assay ER-α (Ki).

Where a name gives a salt, the structure may show the parent alone. Read-outs that look alike come from different tables or passages of the source.

T1 sequence (Q92731 whole entry): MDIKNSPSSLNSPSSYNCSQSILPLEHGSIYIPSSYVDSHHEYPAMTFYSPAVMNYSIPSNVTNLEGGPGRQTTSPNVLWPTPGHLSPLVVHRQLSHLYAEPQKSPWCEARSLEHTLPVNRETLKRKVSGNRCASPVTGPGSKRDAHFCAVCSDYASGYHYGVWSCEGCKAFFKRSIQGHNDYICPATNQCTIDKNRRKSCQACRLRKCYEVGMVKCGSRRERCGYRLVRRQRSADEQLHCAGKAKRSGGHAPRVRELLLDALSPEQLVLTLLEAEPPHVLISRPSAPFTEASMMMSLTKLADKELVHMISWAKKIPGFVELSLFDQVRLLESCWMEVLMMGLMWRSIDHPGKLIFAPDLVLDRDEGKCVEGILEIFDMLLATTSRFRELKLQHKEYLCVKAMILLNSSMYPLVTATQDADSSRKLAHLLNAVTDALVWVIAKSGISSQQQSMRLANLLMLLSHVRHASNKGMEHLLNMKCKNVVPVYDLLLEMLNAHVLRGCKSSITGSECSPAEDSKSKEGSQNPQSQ
Sequence of human recombinant ER-β (Q92731 whole entry): as above

Regarding `CCC(=C(c1ccc(O)cc1)c1ccc(OCCN(C)C)cc1)c1ccccc1` [4-Hydroxy-Tamoxifen], the IC50 with U2OS IL-6 ER-Minus was > 1000 nM.

Regarding `CCN(CC)CCOc1ccc(-c2c(-c3ccccc3)c(=O)oc3ccccc23)cc1` ["L-20", reference compound], the IC50 against human full-length ER-β, in the data set with U2OS IL-6 ER-Minus, in the data set with IL-6 (read-out: IL-6 Activity (IC50)) and against human full-length ER-α was > 1000 nM throughout. Besides, on human recombinant ER-α (setting [3]), the Ki is > 10000 nM.

Take `O=c1oc2cc(O)ccc2c(Cc2ccc(OCCN3CCCCC3)cc2)c1-c1ccccc1` [Compound No. 1, 3-PHENYL-4-[4-(2-{PIPERIDIN-1-YL})ETHOXY]-BENZYL-7-HYDROXYCOUMARIN]: the IC50 in the data set with IL-6 (read-out: IC50 with respect to IL-6) is 10 nM; with GM-CSF (human bone co-culture system of Example 12, read-out: IC50 with respect to GM-CSF), 38 nM. The Ki on human recombinant ER-α (read-out: Solid Phase ER Binding Ki (nM) ER-α, ER-α 15 nM, 30 nM 3H-estradiol, room temperature, average of at least 3 experiments) turned out to be 1.4 nM. Moreover, in data set [1] (not statistically different from vehicle (PEG-400)), the “increase in uterine weight” value is listed as ~30%.

Turning to `CCN(CC)CCOc1ccc(-c2c(-c3ccccc3)c(=O)oc3cc(O)ccc23)cc1` [Compound No. 38], the IC50 was 165 nM against human full-length ER-β, > 10000 nM in the data set with U2OS IL-6 ER-Minus, 175 nM in the data set on IL-6 (read-out: IL-6 Activity (IC50)) and > 1000 nM at human full-length ER-α. The “ER subtype specificity (ER-β versus ER-α)” value at human full-length ER-β is on record as “specificity for ER-β over ER-α”. In addition, the Ki at human recombinant ER-α (setting [3]) was 690 nM; at human recombinant ER-β it was 1560 nM.

As for `C[C@]12CC[C@@H]3c4ccc(O)cc4CC[C@H]3[C@@H]1CC[C@@H]2O` [Estradiol, 17β-estradiol], the IC50 in the data set with U2OS IL-6 ER-Minus is > 1000 nM. Further, the “production of IL-6” value with IL-6 (co-culture system) was “suppress the production of IL-6”. Further, in the data set with GM-CSF (co-culture system), the “production of GM-CSF” value is given as “reduced the production of GM-CSF”. Besides, the “increase in uterine weight” value in data set [1] was found to be 4.5 fold; in data set [2] (ovariectomized rats, 28-day, daily s.c. injection) it was 550%.

Regarding `O=C(c1ccc(OCCN2CCCCC2)cc1)c1c(-c2ccc(O)cc2)sc2cc(O)ccc12` [Raloxifene HCl, Raloxifene Hydrochloride], the concentration for half-maximal inhibition (IC50) in the data set with U2OS IL-6 ER-Minus is > 1000 nM. Moreover, the “increase in uterine weight” value is “up to 50%” in data set [1] (1mg/kg dose) and ~70% in data set [2] (female, rat, in vivo, sc, 28 day).

For the molecule `O=c1oc2cc(O)ccc2c(-c2ccc(OCCN3CCCCC3)cc2)c1-c1ccc(Cl)cc1` [compound 16], the results for the IC50 at human full-length ER-β, in the data set with U2OS IL-6 ER-Minus and against human full-length ER-α were 51 nM, > 1000 nM and 325 nM, respectively. Besides, the “ER subtype specificity (ER-β versus ER-α)” value on human full-length ER-β is “specificity for ER-β over ER-α”.
